This test concerns M. tuberculosis-209. It counts as cell-based, Mycobacterium tuberculosis.

For `O=[N+]([O-])c1ccc(/C(O)=C/C(=S)S)cc1` [Compound 11e, (Z)-3-hydroxy-3-(4-nitrophenyl)-prop-2-enedithioic acid], the “MIC100 in Mtb-209” value is listed as “active”.

These data come from PMC8543028 (Infection and Drug Resistance, 2021).
